According to publication PMC10232738, “Five blueberry anthocyanins and their antioxidant, hypoglycemic, and hypolipidemic effects in vitro” (Frontiers in Nutrition, 2023):
Marks after values point to notes of the source that are not given here.

Tests used:
[1] = DPPH radical scavenging assay; conditions: 30 min, 517 nm, mean ± SD (n = 3)
Description: DPPH assay was determined according to the reported method ([10]). The tested compounds were dissolved in ethanol and diluted to a series of concentrations to be used as test solutions. A total of 100 μl 0.16 mmol/L DPPH in methanol (5 mg/100 ml) was mixed with 100 μl of the test solution. […] A blank sample containing 100 μl of methanol in the DPPH solution was measured. The same procedure was followed for the positive control, ascorbic acid. All samples were analyzed in triplicate at five different concentrations around the EC50 values.

[2] = ABTS radical cation scavenging assay; conditions: 6 min, 734 nm, mean ± SD (n = 3)
Description: The ABTS assay was performed as the reported method ([10]). Briefly, ABTS^+ radical cation was prepared by mixing a 7 mM aqueous stock solution of ABTS^+ and 2.6 mM potassium peroxydisulfate. The reaction mixture was stored in the dark at room temperature for 12 h prior to use. […] Then, 50 μl of the test solution was added to 200 μl of the ABTS^+ radical cation solution. […] A blank sample containing ABTS^+ solution was measured.

[3] = Oxygen radical absorbance capacity (ORAC) assay; conditions: Trolox equivalents, pH 7.4, mean ± SD (n = 3)
Description: The oxygen radical absorbance capacity (ORAC) assay was performed according to the reported method with slight modifications ([11]). The assay was carried out in black-walled 96-well plates. Tested compounds were dissolved in 75 mM phosphate buffer (pH 7.4). […] A blank sample containing 20 μl of phosphate buffer in the reaction mix was prepared and measured. The area under the curve (AUC) was calculated for each sample by integrating the relative fluorescence curve. The net AUC of the sample was calculated by subtracting the AUC of the blank. The regression equation between net AUC and series concentration of Trolox was determined to establish a standard curve, and ORAC values were expressed as μmol Trolox equivalents/μmol samples using the standard curve established previously. All samples were analyzed in triplicate.

α-glucosidase = α-glucosidase inhibitory activity assay (p-NPG substrate); assay type: biochemical, Saccharomyces cerevisiae; conditions: pH 6.9, 37°C, mean ± SD (n = 3)
Text: Acetonitrile, methanol, and formic acid (HPLC grade) were obtained from Tedia Co. Inc. (Fairfield, OH, USA). Ethanol and phosphoric acid were purchased from Sinopharm Chemical Reagent Co. Ltd. (Shanghai, China). Folin-Ciocalteu's phenol reagent, 2,2-diphenyl-1-picrylhydrazyl (DPPH), 2,2′-azinobis-3-ethylbenzothiazoline-6-sulfonic acid (ABTS), α-glucosidase (from Saccharomyces cerevisiae), 4-nitrophenyl-α-D-glucose (p-NPG), and 6-hydroxy-2,5,7,8-tetramethylchroman-2-carboxylic acid (Trolox) were obtained from Sigma-Aldrich (St. Louis, MO, USA). Sodium fluorescein, 2,2′-azobis-2-amidino-propane (AAPH), metformin (Met), oleic acid (OA), and 2-[N-(7-Nitrobenz-2-oxa-1,3-diazol-4-yl)amino]-2-deoxy-D-glucose (2-NDBG) were obtained from Aladdin (Shanghai, China). The assay kits of triglycerides (TG), total cholesterol (TC), and oil-red-O staining were obtained from Jiancheng Bioengineering Institute (Nanjing, China). The BCA assay kit was obtained from Biosharp (Hefei, China). Dulbecco's modified Eagle's medium (DMEM), penicillin-streptomycin, and fetal bovine serum (FBS) were purchased from Invitrogen-Gibco (Grand Island, NY). The chemicals and reagents used in this study were all of pure analytical grade.
The α-glucosidase inhibitory activity was determined as previous methods with slight modifications ([12]). In short, the diluted sample working solution (1 μl) was added to 3 μl of α-glucosidase (0.5 U/ml in 0.1 M sodium phosphate buffer, pH 6.9) and 156 μl of 0.1 M sodium phosphate buffer (pH 6.9). Then, the mixture was incubated at 37°C for 20 min, and 40 μl of 1.5 mM p-NPG (dissolved in 100 mM sodium phosphate buffer, pH 6.9) was added and incubated for 20 min. Absorbance was measured by a microplate reader (Molecular Device, Sunnyvale, CA, USA). A complete reaction mixture without a sample was used as the control. Three parallel operations were performed. All the samples were analyzed in triplicate at five different concentrations around the IC50 values.

HepG2 cells [4] = experiment: 2-NBDG glucose uptake in HG-OA stimulated HepG2 cells; assay type: cell-based, Human; conditions: 12 h, HG-OA (36 mM glucose, 0.25 mM OA) treated HepG2, p < 0.001 vs model
Description: (§1) HepG2 cells were starved in DMEM with 2% FBS for 9 h. To establish an in vitro model of diabesity, cells were stimulated with high glucose (36 mM glucose) and 0.25 mM OA for 12 h according to our previous study ([14]). Then, BB1-BB5 (50 and 100 μM) and Met (100 μM) were added for another 12 h. OA or BB1-BB5 was dissolved in DMSO and added to HepG2 cells in DMEM, and the final DMSO concentration received by the cells was 0.1% (v/v).
After the model was established, HepG2 cells were treated with BB1-BB5 (50 and 100 μM in low and high doses, respectively) for 12 h. 2-NBDG, a fluorescent deoxyglucose, was added to measure glucose uptake ([15]). The culture solution was discarded, and 2-NBDG (100 μM, diluted in DMEM without serum) was added and incubated again for 40 min. […] In total, eight parallels were set up for each sample.

HepG2 cells [5] = experiment: Intracellular total cholesterol (TC) in HG-OA stimulated HepG2 cells; assay type: cell-based, Human; conditions: 12 h, HG-OA treated HepG2, vs model group
Description: as §1
After the model was established, HepG2 cells were treated with BB1–BB5 (50 and 100 μM in low and high doses, respectively) in 6-well plates for 12 h. The culture solution was discarded, and 200 μl of RIPA lysis buffer was added after three washes with PBS and placed on a shaker for 10 min. The cell contents were homogenized and centrifuged (4°C, 10,000 rpm) to extract the supernatant. The TC and TG level in HepG2 cells were tested using the commercial kit by glycerol phosphate oxidase (GPO)-peroxidase (PAP) method based on several enzyme-driven reactions. The end product, hydrogen peroxide, which can be oxidatively coupled with 4-aminoantipyrine and phenol in the presence of peroxidase to yield a chromogen, was measured at 500 nm ([16]). In total, eight replicates were set for each sample.

Row | EC50 [1] [µM] | EC50 [2] [µM] | IC50 (α-glucosidase) [µM] | Compound | ORAC [3] | Glucose uptake capacity (2-NBDG fluorescence) (HepG2 cells [4]; 100 μM) | Glucose uptake capacity (2-NBDG fluorescence) (HepG2 cells [4]; 50 μM) | Intracellular TC levels (HepG2 cells [5]; 100 μM) | Intracellular TC levels (HepG2 cells [5]; 50 μM)
1 | 39.91 ± 0.24 | 19 ± 0.2 | 68.3 ± 12.4 | OCC1OC(Oc2cc3c(O)cc(O)cc3[o+]c2-c2cc(O)c(O)c(O)c2)C(O)C(O)C1O (centres unmarked) [BB1, delphinidin-3-O-galactoside] | 13.23 ± 0.03^a μmol Trolox/μmol |  |  |  | 
2 | 61.4 ± 2.29 | 20.7 ± 0.67 | 240 ± 9.2 | OC[C@H]1O[C@@H](Oc2cc3c(O)cc(O)cc3[o+]c2-c2cc(O)c(O)c(O)c2)[C@H](O)[C@@H](O)[C@@H]1O [BB2, delphinidin-3-O-glucoside] | 9.44 ± 0.12^d μmol Trolox/μmol | significant increase |  |  | 
3 | 63.2 ± 2 | 24.2 ± 1.88 | 68.5 ± 20.9 | COc1cc(-c2[o+]c3cc(O)cc(O)c3cc2OC2OC(CO)C(O)C(O)C2O)cc(O)c1O (centres unmarked) [BB3, petunidin-3-O-galactoside] | 11.31 ± 0.22^c μmol Trolox/μmol | significant increase | significant increase | noticeably reduced | 
4 | 62.11 ± 0.27 | 39.3 ± 1.55 | 218 ± 22.7 | COc1cc(-c2[o+]c3cc(O)cc(O)c3cc2O[C@@H]2O[C@H](CO)[C@@H](O)[C@H](O)[C@H]2O)cc(O)c1O [BB4, petunidin-3-O-glucoside] | 11.02 ± 0.16^c μmol Trolox/μmol | significant increase |  | noticeably reduced | noticeably reduced
5 | 112 ± 15.3 | 44.5 ± 0.55 |  | O=C1O[C@H]([C@@H](O)CO)C(O)=C1O [ascorbic acid, reference compound] |  |  |  |  | 

Row | Compound | EC50 [1] [µM] | EC50 [2] [µM] | IC50 (α-glucosidase) [µM] | ORAC [3] | Glucose uptake capacity (2-NBDG fluorescence) (HepG2 cells [4]; 100 μM) | Glucose uptake capacity (2-NBDG fluorescence) (HepG2 cells [4]; 50 μM) | Intracellular TC levels (HepG2 cells [5]; 100 μM) | Intracellular TC levels (HepG2 cells [5]; 50 μM)
6 | COc1cc(-c2[o+]c3cc(O)cc(O)c3cc2OC2OC(CO)C(O)C(O)C2O)cc(OC)c1O (centres unmarked) [BB5, malvidin-3-O-galactoside] | 38.8 ± 3.33 | 14.3 ± 1 | 185 ± 10.9 | 11.89 ± 0.13^b μmol Trolox/μmol | significant increase | significant increase | noticeably reduced | 
